Laboratory results: ChEMBL document CHEMBL1145554, “First CoMFA characterization of vesamicol analogs as ligands for the vesicular acetylcholine transporter” (J Med Chem, 2008)

Experiment: Displacement of [3H]vesamicol from VAChT receptor in torpedo electrical organ synaptic vesicle

O[C@@H]1C[C@H]2CCCC[C@@H]2C[C@H]1N1CCC(c2ccccc2)CC1
Ki: 0.009 nM

O=C(CN1C2CCC1CC(c1ccccc1)C2)c1ccc(F)cc1 (stereo not drawn)
Ki: 3400 nM

O[C@@H]1CCCC[C@H]1N1CCC(c2ccccc2)CC1 (relative stereo) [VESAMICOL]
Ki: 7.6 nM
